According to patent US20240018161A1, “MODULATORS OF CYSTIC FIBROSIS TRANSMEMBRANE CONDUCTANCE REGULATOR” (VERTEX PHARMACEUTICALS INCORPORATED, priority 2020, published 2024):
Like-named read-outs stand apart in the source and are kept apart here. Values belong to the compound of their own block, whether it stands above or below them.

Experiments:
[1] = 13-membered ring, DMF
[2] = molecular target: CFTR-mediated chloride transport in human intestinal epithelial enteroid cells (Homo sapiens, UniProt P13569); experiment: Membrane potential dye, Enteroid Assay A; assay type: cell-based; conditions: for EC50: read-out: Ent. A EC50
Method in brief: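 Membrane potential dye (20 μM methyl oxonol, with 30 μM CaCCinh-A01 and 30 μM Chicago Sky Blue) loaded 25 min at room temperature into ROCK-inhibitor-seeded human enteroid cells. Chloride-free stimulation buffer triggered transport, followed by 15 min fluorescence. % Activity relative to 3 μM/3 μM/300 nM triple-combination control.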

CFTR-mediated chloride transport in human intestinal epithelial enteroid cells, sequence (P13569 with tags, fused parts or gaps DEL508-508): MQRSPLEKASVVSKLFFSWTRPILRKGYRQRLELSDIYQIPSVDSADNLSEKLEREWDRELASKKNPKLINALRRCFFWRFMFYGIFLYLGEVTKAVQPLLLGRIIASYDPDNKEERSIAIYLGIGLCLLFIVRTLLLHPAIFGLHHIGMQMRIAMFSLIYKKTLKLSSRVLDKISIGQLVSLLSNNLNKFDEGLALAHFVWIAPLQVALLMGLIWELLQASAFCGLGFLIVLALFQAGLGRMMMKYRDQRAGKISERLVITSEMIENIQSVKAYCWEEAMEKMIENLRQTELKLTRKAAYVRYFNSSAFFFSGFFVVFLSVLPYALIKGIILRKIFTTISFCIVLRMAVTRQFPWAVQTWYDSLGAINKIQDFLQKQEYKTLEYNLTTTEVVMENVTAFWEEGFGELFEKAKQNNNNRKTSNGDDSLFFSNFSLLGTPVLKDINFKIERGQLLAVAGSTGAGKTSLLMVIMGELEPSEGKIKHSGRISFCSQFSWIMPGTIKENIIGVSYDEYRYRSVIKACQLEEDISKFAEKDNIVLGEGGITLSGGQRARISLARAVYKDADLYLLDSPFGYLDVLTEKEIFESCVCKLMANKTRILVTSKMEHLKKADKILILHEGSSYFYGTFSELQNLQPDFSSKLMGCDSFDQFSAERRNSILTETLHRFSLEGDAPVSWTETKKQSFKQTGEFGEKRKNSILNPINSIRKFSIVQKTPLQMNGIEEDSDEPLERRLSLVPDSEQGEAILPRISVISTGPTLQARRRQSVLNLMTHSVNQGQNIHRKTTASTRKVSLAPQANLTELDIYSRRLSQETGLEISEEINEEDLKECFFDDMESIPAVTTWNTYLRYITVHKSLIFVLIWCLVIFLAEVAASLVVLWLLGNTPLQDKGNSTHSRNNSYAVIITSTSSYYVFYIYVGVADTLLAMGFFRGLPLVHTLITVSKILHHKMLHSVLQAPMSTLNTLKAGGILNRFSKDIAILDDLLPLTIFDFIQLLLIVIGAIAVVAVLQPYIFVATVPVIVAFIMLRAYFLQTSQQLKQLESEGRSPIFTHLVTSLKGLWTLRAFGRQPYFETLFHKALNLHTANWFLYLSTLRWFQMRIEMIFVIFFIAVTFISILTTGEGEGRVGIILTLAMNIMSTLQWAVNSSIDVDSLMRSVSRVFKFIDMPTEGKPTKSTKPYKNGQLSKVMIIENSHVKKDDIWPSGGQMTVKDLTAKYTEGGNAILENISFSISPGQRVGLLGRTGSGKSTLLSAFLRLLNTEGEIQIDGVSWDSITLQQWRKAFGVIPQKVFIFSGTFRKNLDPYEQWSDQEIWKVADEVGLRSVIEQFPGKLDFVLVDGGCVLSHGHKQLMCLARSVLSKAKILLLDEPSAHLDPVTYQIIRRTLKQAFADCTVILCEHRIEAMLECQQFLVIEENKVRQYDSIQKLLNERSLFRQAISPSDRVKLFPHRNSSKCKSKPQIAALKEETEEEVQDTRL

SMILES: Cc1cccc(C)c1-c1cc2nc(n1)NS(=O)(=O)c1cccc(c1)C(=O)N1CCN(C(=O)OC(C)(C)C)CC1CO2 (centres unmarked)
- ring closure, isolated yield ([1]; from Cc1cccc(C)c1-c1cc(OCC2CN(C(=O)OC(C)(C)C)CCN2)nc(NS(=O)(=O)c2cccc(C(=O)O)c2)n1, amide bond, HATU/DIEA, 13.8 mM, 25.0 °C, 2.0 h, 2 steps): 81%

SMILES: Cc1cccc(C)c1-c1cc2nc(n1)NS(=O)(=O)c1cccc(c1)C(=O)N1CCN(C(=O)OCc3ccccc3)CC(O2)[C@H]1C (single isomer, unassigned; diastereomer 1)
- ring closure, isolated yield ([1]; from Cc1cccc(C)c1-c1cc(Cl)nc(NS(=O)(=O)c2cccc(C(=O)N3CCN(C(=O)OCc4ccccc4)CC(O)[C@H]3C)c2)n1, snar bond, NaH, 29.4 mM, 0.0 °C, 1.25 h): 17%

SMILES: Cc1cccc(C)c1-c1cc2nc(n1)NS(=O)(=O)c1cccc(c1)C(=O)N1C(c3ncc(OC(C)C)cn3)CCCC(O2)[C@H]1CC(C)C (single isomer, unassigned; isomer 1)
- ring closure, isolated yield ([1]; from Cc1cccc(C)c1-c1cc(OC2CCCC(c3ncc(OC(C)C)cn3)N[C@@H]2CC(C)C)nc(NS(=O)(=O)c2cccc(C(=O)O)c2)n1, amide bond, CDMT/NMM, 16.3 mM, 24.0 h): 23%

SMILES: Cc1cccc(C)c1-c1cc2nc(n1)NS(=O)(=O)c1cccc(c1)C(=O)N1C(c3ncc(OC(C)C)cn3)CCCC(O2)[C@H]1CC(C)C (single isomer, unassigned; isomer 2)
- ring closure, isolated yield ([1]; from Cc1cccc(C)c1-c1cc(OC2CCCC(c3ncc(OC(C)C)cn3)N[C@@H]2CC(C)C)nc(NS(=O)(=O)c2cccc(C(=O)O)c2)n1, amide bond, CDMT/NMM, 7.3 mM, 60.0 h): 27%

SMILES: Cc1cccc(C)c1-c1cc2nc(n1)NS(=O)(=O)c1cccc(c1)C(=O)N1C(c3ncc(OC(C)C)cn3)CCCC(CC(C)C)C1CO2 (single isomer, unassigned; isomer a)
- ring closure, isolated yield ([1]; from Cc1cccc(C)c1-c1cc(OCC2NC(c3ncc(OC(C)C)cn3)CCCC2CC(C)C)nc(NS(=O)(=O)c2cccc(C(=O)O)c2)n1, amide bond, CDMT/NMM, 16.2 mM, 40.0 h, 2 steps): 35%

SMILES: Cc1cccc(C)c1-c1cc2nc(n1)NS(=O)(=O)c1cccc(c1)C(=O)N1CCN(C(=O)OC(C)(C)C)CC(C1)O2 (centres unmarked) [Compound 43, tert-Butyl 12-(2,6-dimethylphenyl)-2,8,8-trioxo-15-oxa-8λ^6-thia-1,9,11,18,22-pentaazatetracyclo[14.4.1.13,7.110,14]tricosa-3(23),4,6,10(22),11,13-hexaene-18-carboxylate]
- ring closure, isolated yield ([1]; from Cc1cccc(C)c1-c1cc(Cl)nc(NS(=O)(=O)c2cccc(C(=O)N3CCN(C(=O)OC(C)(C)C)CC(O)C3)c2)n1, snar bond, NaH, 15.5 mM, 25.0 °C, 16.0 h): 56%
- EC50 ([2]; enteroid cells incubated with test compound 18-24 hours, acute 10 μM forskolin and 300 nM N-[2,4-bis(1,1-dimethylethyl)-5-hydroxyphenyl]-1,4-dihydro-4-oxoquinoline-3-carboxamide): < 1 µM
- Ent. A Max Activity (%) ([2]; percentage of chloride transport of triple combination control (3 μM N-[(6-amino-2-pyridyl)sulfonyl]-6-(3-fluoro-5-isobutoxy-phenyl)-2-[(4S)-2,2,4-trimethylpyrrolidin-1-yl]pyridine-3-carboxamide based)): +++ (+++ is >60%)

SMILES: Cc1cccc(C)c1-c1cc2nc(n1)NS(=O)(=O)c1cccc(c1)CN1CC(CN(C(=O)OC(C)(C)C)CC1=O)O2 (centres unmarked) [Compound 77, tert-Butyl 12-(2,6-dimethylphenyl)-8,8,20-trioxo-15-oxa-8λ^6-thia-1,9,11,18,22-pentaazatetracyclo[14.4.1.13,7.110,14]tricosa-3(23),4,6,10,12,14(22)-hexaene-18-carboxylate]
- ring closure, isolated yield ([1]; from Cc1cccc(C)c1-c1cc(OC2CNC(=O)CN(C(=O)OC(C)(C)C)C2)nc(NS(=O)(=O)c2cccc(CBr)c2)n1, other bond, NaH, 19.7 mM, 0.0 °C, 0.5 h): 68%
- Ent. A Max Activity (%) ([2]; Enteroid Assay A): ++ (++ is 30-60%)
- EC50 ([2]; Enteroid Assay A): < 1 µM

SMILES: Cc1cccc(C)c1-c1cc2nc(n1)NS(=O)(=O)c1cccc(c1)C(=O)N1CCN(Cc3ccccc3)C[C@@H](O2)[C@H]1CC(C)C [Compound 84, (16R,21R)-18-Benzyl-12-(2,6-dimethylphenyl)-21-(2-methylpropyl)-15-oxa-8λ^6-thia-1,9,11,18,22-pentaazatetracyclo[14.4.1.13,7.110,14]tricosa-3(23),4,6,10,12,14(22)-hexaene-2,8,8-trione]
- ring closure, isolated yield ([1]; from Cc1cccc(C)c1-c1cc(Cl)nc(NS(=O)(=O)c2cccc(C(=O)N3CCN(Cc4ccccc4)C[C@H](O)[C@H]3CC(C)C)c2)n1, snar bond, NaH, 16.6 mM, 25.0 °C, 72.0 h): 35%
- Ent. A Max Activity (%) ([2]; Enteroid Assay A): +++ (+++ is >600%)
- EC50 ([2]; Enteroid Assay A): < 1 µM

The next lines start with results.

- Ent. A Max Activity (%) ([2]; Enteroid Assay A): +++ (+++ is >600%)
- EC50 ([2]; Enteroid Assay A): < 1 µM
SMILES: Cc1cccc(C)c1-c1cc2nc(n1)NS(=O)(=O)c1cccc(c1)C(=O)N1CCN(Cc3ccccc3)C[C@H](O2)[C@H]1CC(C)C [Compound 86, (16S,21R)-18-Benzyl-12-(2,6-dimethylphenyl)-21-(2-methylpropyl)-15-oxa-8λ^6-thia-1,9,11,18,22-pentaazatetracyclo[14.4.1.13,7.110,14]tricosa-3(23),4,6,10(22),11,13-hexaene-2,8,8-trione]
- ring closure, isolated yield ([1]; from Cc1cccc(C)c1-c1cc(Cl)nc(NS(=O)(=O)c2cccc(C(=O)N3CCN(Cc4ccccc4)C[C@@H](O)[C@H]3CC(C)C)c2)n1, snar bond, NaH, 16.5 mM, 25.0 °C, 17.0 h): 5%

- Ent. A Max Activity (%) ([2]; Enteroid Assay A): ++ (++ is 30-60%)
- EC50 ([2]; Enteroid Assay A): < 1 µM
SMILES: Cc1cccc(C)c1-c1cc2nc(n1)NS(=O)(=O)c1cccc(c1)C(=O)N1C[C@@H](CN(C(=O)OC(C)(C)C)C[C@@H]1CC(C)C)O2 [Compound 96, tert-Butyl (16S,20S)-12-(2,6-dimethylphenyl)-20-(2-methylpropyl)-2,8,8-trioxo-15-oxa-8λ^6-thia-1,9,11,18,22-pentaazatetracyclo[14.4.1.13,7.110,14]tricosa-3(23),4,6,10(22),11,13-hexaene-18-carboxylate]
- ring closure, isolated yield ([1]; from Cc1cccc(C)c1-c1cc(Cl)nc(NS(=O)(=O)c2cccc(C(=O)N3C[C@H](O)CN(C(=O)OC(C)(C)C)C[C@@H]3CC(C)C)c2)n1, snar bond, NaH, 29.2 mM, 25.0 °C, 5.08 h): 66%

- Ent. A Max Activity (%) ([2]; Enteroid Assay A): + (+ is <30%)
SMILES: Cc1cccc(C)c1-c1cc2nc(n1)NS(=O)(=O)c1cccc(c1)C(=O)N1C[C@H](CN(C(=O)OC(C)(C)C)C[C@@H]1CC(C)C)O2 [Compound 100, tert-Butyl (16R,20S)-12-(2,6-dimethylphenyl)-20-(2-methylpropyl)-2,8,8-trioxo-15-oxa-8λ^6-thia-1,9,11,18,22-pentaazatetracyclo[14.4.1.13,7.110,14]tricosa-3(23),4,6,10(22),11,13-hexaene-18-carboxylate]
- ring closure, isolated yield ([1]; from Cc1cccc(C)c1-c1cc(Cl)nc(NS(=O)(=O)c2cccc(C(=O)N3CC(O)CN(C(=O)OC(C)(C)C)C[C@@H]3CC(C)C)c2)n1, snar bond, NaH, 31.2 mM, 25.0 °C, 3.08 h): 35%

- Ent. A Max Activity (%) ([2]; Enteroid Assay A): ++ (++ is 30-60%)
- EC50 ([2]; Enteroid Assay A): < 1 µM
SMILES: Cc1cccc(C)c1-c1cc2nc(n1)NS(=O)(=O)c1cccc(c1)C(=O)N1C[C@@H](CN(C(=O)OC(C)(C)C)C[C@H]1CC(C)C)O2 [Compound 102, tert-Butyl (16S,20R)-12-(2,6-dimethylphenyl)-20-(2-methylpropyl)-2,8,8-trioxo-15-oxa-8λ^6-thia-1,9,11,18,22-pentaazatetracyclo[14.4.1.13,7.110,14]tricosa-3(23),4,6,10(22),11,13-hexaene-18-carboxylate]
- ring closure, isolated yield ([1]; from Cc1cccc(C)c1-c1cc(Cl)nc(NS(=O)(=O)c2cccc(C(=O)N3C[C@H](O)CN(C(=O)OC(C)(C)C)C[C@H]3CC(C)C)c2)n1, snar bond, NaH, 30.8 mM, 4.17 h): 34%

- Ent. A Max Activity (%) ([2]; Enteroid Assay A): + (+ is <30%)
SMILES: Cc1cccc(C)c1-c1cc2nc(n1)NS(=O)(=O)c1cccc(c1)C(=O)N1C[C@H](CN(C(=O)OC(C)(C)C)C[C@H]1CC(C)C)O2 [Compound 106, tert-Butyl (16R,20R)-12-(2,6-dimethylphenyl)-20-(2-methylpropyl)-2,8,8-trioxo-15-oxa-8λ^6-thia-1,9,11,18,22-pentaazatetracyclo[14.4.1.13,7.110,14]tricosa-3(23),4,6,10(22),11,13-hexaene-18-carboxylate]
- ring closure, isolated yield ([1]; from Cc1cccc(C)c1-c1cc(Cl)nc(NS(=O)(=O)c2cccc(C(=O)N3C[C@@H](O)CN(C(=O)OC(C)(C)C)C[C@H]3CC(C)C)c2)n1, snar bond, NaH, 31.3 mM, 2.17 h): 45%

- Ent. A Max Activity (%) ([2]; Enteroid Assay A): +++ (+++ is >600%)
- EC50 ([2]; Enteroid Assay A): < 1 µM
SMILES: Cc1cccc(C)c1-c1cc2nc(n1)NS(=O)(=O)c1cccc(c1)C(=O)N1C[C@@H](CN(Cc3ccccc3)[C@@H](CC(C)C)C1)O2 [Compound 109, (16R,19S)-18-Benzyl-12-(2,6-dimethylphenyl)-19-(2-methylpropyl)-15-oxa-8λ^6-thia-1,9,11,18,22-pentaazatetracyclo[14.4.1.13,7.110,14]tricosa-3(23),4,6,10(22),11,13-hexaene-2,8,8-trione]
- ring closure, isolated yield ([1]; from Cc1cccc(C)c1-c1cc(Cl)nc(NS(=O)(=O)c2cccc(C(=O)N3CC(O)CN(Cc4ccccc4)[C@@H](CC(C)C)C3)c2)n1, snar bond, NaH, 30.0 mM, 0.0 °C, 7.0 h): 28%

- Ent. A Max Activity (%) ([2]; Enteroid Assay A): + (+ is <30%)
SMILES: Cc1cccc(C)c1-c1cc2nc(n1)NS(=O)(=O)c1cccc(c1)C(=O)N1C[C@H](CN(Cc3ccccc3)[C@H](CC(C)C)C1)O2 [Compound 111, (16S,19R)-18-Benzyl-12-(2,6-dimethylphenyl)-19-(2-methylpropyl)-15-oxa-8λ^6-thia-1,9,11,18,22-pentaazatetracyclo[14.4.1.13,7.110,14]tricosa-3(23),4,6,10(22),11,13-hexaene-2,8,8-trione]
- ring closure, isolated yield ([1]; from Cc1cccc(C)c1-c1cc(Cl)nc(NS(=O)(=O)c2cccc(C(=O)N3C[C@@H](O)CN(Cc4ccccc4)[C@H](CC(C)C)C3)c2)n1, snar bond, NaH, 28.6 mM, 4.6 h): 57%
